From US20250262297A1, “ALLERGY ANTIGEN AND EPITOPE THEREOF” (HOYU CO., LTD., priority 2017, published 2025)

system: IgE antibodies from soybean-allergic patients; assay: Immunoblotting of two-dimensional electrophoresis pattern of soybean proteins with patient serum; type: binding, human; conditions: spot in 2D electrophoresis gel of soybean proteins; patient serum compared with healthy subject serum
Description: Transfer to membrane was done using the following transfer system and transfer buffer. • Transfer system: XCell SureLock Mini-Cell and XCell II Blot Module (produced by Life Technologies) • Transfer buffer: NuPAGE Transfer Buffer (X20) (produced by Life Technologies), used in a form diluted 20-fold with milliQ water.
To be specific, proteins in the two-dimensional electrophoresis gels were transferred to a membrane (PVDF membrane) according to the following procedure. • (1) The PVDF membrane was immersed in 100% methanol followed by milliQ water, and then moved into the transfer buffer to hydrophilize the PVDF membrane. • (2) After sponge, filter paper, the gels treated by second-dimensional SDS-PAGE, the hydrophilized PVDF membrane, filter paper, and sponge were put in place in this order, the transfer system was energized at a constant voltage of 30 V for one hour.
Immunoblotting of the membrane was carried out using, as a primary antibody, a serum sample from a patient with a soybean allergy or a serum sample from a healthy subject.
Immunoblotting of the membrane was carried out according to the following procedure. • (1) The transferred membrane was shaken in a 5% skim milk/PBST solution (a PBS buffer containing 0.3% Tween 20 nonionic surfactant) at room temperature for one hour. • (2) The membrane was left to stand in a solution of 3% primary antibody serum in 5% skim milk/PBST at room temperature for one hour. • (3) The membrane was washed with a PBST solution (5 min.×3 times). • (4) The membrane was left to stand in a 1:2500 dilution of the secondary antibody, anti-human IgE-HRP (horseradish peroxidase), with a 3% skim milk/PBST solution at room temperature for one hour. • (5) The membrane was washed with a PBST solution (5 min.×3 times). • (6) The membrane was left to stand in Pierce Western Blotting Substrate Plus (produced by Thermo Fisher Scientific) for 5 minutes.
The membrane obtained through the foregoing series of treatments was subjected to fluorescent image scanning on Typhoon 9400 (produced by GE).
The immunoblots obtained with the serum from the soybean-allergic patient were compared with those obtained with the control serum from the healthy subject.

Row | Substance | specific binding to IgE antibodies from soybean-allergic patients
1 | UTP-glucose-1-phosphate uridylyltransferase [Spot 15α] | specific binding
2 | elongation factor 1-alpha [Spot 35α] | specific binding
3 | embryo-specific urease isoform X1 [Spot 4α] | specific binding
4 | glyceraldehyde-3-phosphate dehydrogenase isoform X1 [Spot 29α] | specific binding
5 | heat shock cognate protein 80 [Spot 2α] | specific binding
6 | lysine-tRNA ligase, cytoplasmic-like isoform X2 [Spot 9α] | specific binding
7 | methionine synthase [Spot 7α] | specific binding
8 | pyrophosphate-fructose 6-phosphate 1-phosphotransferase subunit alpha-like [Spot 12α] | specific binding
9 | seed biotin-containing protein SBP65-like isoform X1 [Spot 38α] | specific binding

system: IgE antibody present in the serum of a patient allergic to a soybean; assay: Epitope mapping and overlapping peptide fragments on SPOT membrane, immunoblotting; type: binding, human; conditions: procedure of (B), overlapping
Method: Epitope mapping was carried out using a library of overlapping peptide fragments (length: 15 amino acids) corresponding to the sequences of proteins bound patient-specifically to IgE antibodies in serum, which were obtained as a result of 2D-western of soybeans.
The peptides to be synthesized were shifted by 10 amino acids.
For preparation of peptide arrays, peptide synthesis of interest was carried out in incremental steps on a modified cellulose membrane by the Intavis SPOT synthesis technique, which is a technique of synthesizing peptides of interest through 9-fluorenylmethoxycarbonyl (Fmoc) chemical reaction, using an automated synthesis apparatus (Intavis MultiPep RS). […]
The presence or absence of binding, to each peptide fragment, of an IgE antibody present in the serum of a patient allergic to a soybean was measured by immunoblotting using the membrane on which the peptide fragments were synthesized by SPOT. […]
Thereafter, for the sequences of peptides bound patient-specifically to IgE antibodies in serum in the epitope mapping described above in (A), a library of overlapping peptide fragments (length: 10 amino acids) was obtained as sequences having the sequences of these peptides as well as additional sequences subsequent to the peptides in the amino acid sequences of antigen proteins on which the epitopes were detected. […]

Row | Substance | identified as epitope (common sequence of peptides bound to IgE antibodies from allergic patients)
10 | SEQ ID NO: 871: amino acids 1-15 of SEQ ID NO: 495 (seed biotin-containing protein SBP65-like isoform X1) (MASEQMPRRENNSNR; epitope) | identified as epitopes

system: IgE antibody from one patient having allergies to a soybean, a peach and an apple; assay: ELISA of biotinylated peptides, study on cross-reactivity; type: binding, human; conditions: FIG. 6
Method: The binding activity of peptides comprising the amino acid sequences of SEQ ID NOS: 871, 984 and 985 against an IgE antibody from one patient having allergies to a soybean, a peach and an apple was confirmed by ELISA. The peptides were synthesized such that the peptides were N-terminally biotinylated by the Fmoc method.
To be specific, ELISA was carried out according to the following procedure. • (1) The concentrations of the biotinylated peptides were adjusted to 1 μg/mL with PBST. • (2) Each peptide solution was added at 40 μL to each well of a 384-well plate coated with streptavidin, and shaken at room temperature for one hour. After collection of the solution, the wells were washed with PBS five times. • (3) A 1:5 dilution of Blocking one (diluted with MQ) was added at 40 μL thereto and shaken at room temperature for 15 minutes. After removal of the solution, the wells were washed with PBS five times. • (4) A diluted serum solution (1:10, diluting solution: Blocking one produced by Nacalai Tesque, Inc.) was added at 40 μL thereto and shaken at room temperature for one hour. After removal of the solution, the wells were washed with PBS five times. • (5) A diluted secondary antibody solution (1:5000, diluting solution: Blocking one produced by Nacalai Tesque, Inc.) was added at 40 μL thereto and shaken at room temperature for one hour. […] Absorbance at 450 nm was measured.

Row | binding to IgE antibody from the allergic patient compared with IgE antibody from a healthy subject | Substance
11 | bound more strongly | SEQ ID NO: 871: amino acids 1-15 of SEQ ID NO: 495 (seed biotin-containing protein SBP65-like isoform X1) (MASEQMPRRENNSNR; epitope)

same assay, conditions: peptide 1 μg/mL, serum 1:10, absorbance at 450 nm, FIG. 6

Row | binding activity against the IgE antibody from the patient | Substance
12 | exhibited binding activity | SEQ ID NO: 871: amino acids 1-15 of SEQ ID NO: 495 (seed biotin-containing protein SBP65-like isoform X1) (MASEQMPRRENNSNR; epitope)
